Experimental data taken from patent US6464839B1, “Beta-elemene, method to prepare the same and uses thereof” (Yuan da International Group Limited, priority 1997, dated 2002).

Key:
cerebral neuroglioma = assay: Cerebral neuroglioma, murine sub-renal capsule model; type: in vivo
Source text: (D) Neuroglioma: It was indicated in the pharmacodynamic study of cerebral neuroglioma using murine sub-renal capsule model that the inhibition rate was 50-70%.

[1] = Side effects in animal pharmacodynamic studies (bone marrow, white blood cell count); type: in vivo
[2] = Passage through the brain-blood barrier; type: in vivo; conditions: work of the Department of Embryology, Dalian Medical University
[3] = tested on: thalamic glioblastoma; brain metastasis of lung cancer; assay: Treatment of patients with brain tumors with beta-elemene emulsive injection; type: in vivo, human
Protocol: In two instances, patients at the Second Affiliated Hospital of the Dalian Medical University were treated with the beta-elemene composition as an emulsive injection. The medical records were kept at that hospital.
The patient was hospitalized for surgery in July 1995. […] A beta-elemene emulsive injection was employed through 600 ml cervical artery intubation and 400 ml intravenous drip alternately once per day.
Due to the lung metastasis and the age of the patient, surgery was difficult to perform. The patient was hospitalized in mid November 1996.
The patient was treated with beta-elemene as prepared herein. […] In the middle of December 1996 the patient had another CT scan.

[4] = tested on: murine Ehrlich ascites carcinoma; conditions: material with beta-elemene 65%, gamma and delta-elemene 20%, impurities 15%; cited from earlier work
[5] = tested on: rat ascitic reticulum cell sarcoma; conditions: material with beta-elemene 65%, gamma and delta-elemene 20%, impurities 15%; cited from earlier work
[6] = material with beta-elemene 65%, gamma and delta-elemene 20%, impurities 15%; cited from earlier work
S180 solid tumor = assay: S180 solid tumor, animal pharmacodynamic study; conditions: injection
S180 ascites cancer = assay: S180 ascites cancer, animal pharmacodynamic study; conditions: intra-peritoneal injection
hepatic solid tumor = assay: Hepatic solid tumor, animal pharmacodynamic study
EAC = EAC ascites carcinoma, animal pharmacodynamic study; conditions: EAC ascites cancer, intra-peritoneal injection
L1210 leukemia = assay: Murine leukemia L1210, animal pharmacodynamic study; conditions: injection
[7] = tested on: hepatic ascites carcinoma; assay: Hepatic ascites carcinoma, animal pharmacodynamic study
[8] = Patient I, thalamic glioblastoma

## C=CC1(C)CCC(C(=C)C)CC1C(=C)C (stereo not drawn) [beta-elemene, 1-methyl-1-vinyl-2,4-diisoprotenyl-cyclohexane]
Cerebral neuroglioma
  inhibition rate: 50-70%
[1]
  bone marrow inhibition or reduction of white blood cell count: no measurable bone marrow inhibition or reduction of white blood cell count
[2]
  ability to pass through the brain-blood barrier (BBB): able to pass through the brain-blood barrier (BBB)
[3]; [8]
  survival with the tumor: 11 months
  tumor size on CT scan: no apparent reduction in tumor size
[3]; Patient I, thalamic glioblastoma, cervical artery intubation and intravenous drip alternately once per day
  growth of the tumor: quickly controlled
[3]; Patient II, based upon previous experience with patients at that stage of illness
  prolongation of the life of the patient: more than 4 months
[3]; Patient II, lung cancer with multiple metastasis to the brain, about one month of treatment
  tumor size on CT scan: The size of the tumor was reduced
[4]
  anti-tumor activity: marked anti-tumor activity
[5]
  anti-tumor activity: marked anti-tumor activity
[6]
  side effects during treatment: Diarrhea and weight loss
S180 solid tumor
  inhibition rate: 33-59%
S180 ascites cancer
  life prolongation rate: 90-321%
Hepatic solid tumor
  inhibition rate: 10-30%
EAC
  life prolongation rate: 85-310%
L1210 leukemia
  life prolongation rate: 47-289%
[7]
  life prolongation rate: 103-224%
